In patent US20080118980A1, “Estrogen Enhancing Differentiation of Human Mesenchymal Stromal Cells and Adipose-derived Stromal Cells” (The Board of Trustees of the University of Illinois,, priority 2006, published 2008):

Test system: human bone marrow mesenchymal stem cells (MSCs)
Assay: Proliferation of human bone marrow MSCs in basic medium with E2 or E3 (MTS, Example 3)
Type: cell-based
Procedure: This study investigates the mitogenic effects of estrogen receptor ligands on human bone marrow MSCs that is not contacted with osteogenic or adipogenic medium. Purified human bone marrow mesenchymal stem cells (MSCs) were purchased commercially. MSCs were respectively exposed to basic medium (DMEM+10% FBS+1% antibiotics), and basic medium supplement with 10^−6 and 10^−9 M 17-β estradiol (E2) and estriol (E3) for approximately one week. Then, various cells were plated into 96-well plates in 500 cells/well and continued to be exposed to the media. After 4 days, cell densities were measured by MTS methods and compared to initial densities. FIG. 8 illustrates the increase of the number of MSCs after being treated with basic medium and basic medium supplemented with E2 or E3.

C[C@]12CC[C@@H]3c4ccc(O)cc4CC[C@H]3[C@@H]1C[C@@H](O)[C@@H]2O [E3, estriol]
cell proliferation (MTS assay and cell counting) (10^−6 and 10^−9 M, about one week then 4 days in 96-well plates, FIG. 8): greatly increased | differentiation capabilities (adipogenic and osteogenic) of modulated MSCs (vs controls): maintain their differentiation capabilities
